Measurements reported in patent US20260200890A1, “ADAR1 INHIBITORS AND METHODS OF USING THE SAME” (AVAMMUNE THERAPEUTICS INC., priority 2022, published 2026).

Biological target: T1, ADAR1 (Homo sapiens, UniProt P55265)
T1 construct: endogenous in cells; host or cells: p110 KO A549 dual cells
T1 sequence (P55265 1-1226): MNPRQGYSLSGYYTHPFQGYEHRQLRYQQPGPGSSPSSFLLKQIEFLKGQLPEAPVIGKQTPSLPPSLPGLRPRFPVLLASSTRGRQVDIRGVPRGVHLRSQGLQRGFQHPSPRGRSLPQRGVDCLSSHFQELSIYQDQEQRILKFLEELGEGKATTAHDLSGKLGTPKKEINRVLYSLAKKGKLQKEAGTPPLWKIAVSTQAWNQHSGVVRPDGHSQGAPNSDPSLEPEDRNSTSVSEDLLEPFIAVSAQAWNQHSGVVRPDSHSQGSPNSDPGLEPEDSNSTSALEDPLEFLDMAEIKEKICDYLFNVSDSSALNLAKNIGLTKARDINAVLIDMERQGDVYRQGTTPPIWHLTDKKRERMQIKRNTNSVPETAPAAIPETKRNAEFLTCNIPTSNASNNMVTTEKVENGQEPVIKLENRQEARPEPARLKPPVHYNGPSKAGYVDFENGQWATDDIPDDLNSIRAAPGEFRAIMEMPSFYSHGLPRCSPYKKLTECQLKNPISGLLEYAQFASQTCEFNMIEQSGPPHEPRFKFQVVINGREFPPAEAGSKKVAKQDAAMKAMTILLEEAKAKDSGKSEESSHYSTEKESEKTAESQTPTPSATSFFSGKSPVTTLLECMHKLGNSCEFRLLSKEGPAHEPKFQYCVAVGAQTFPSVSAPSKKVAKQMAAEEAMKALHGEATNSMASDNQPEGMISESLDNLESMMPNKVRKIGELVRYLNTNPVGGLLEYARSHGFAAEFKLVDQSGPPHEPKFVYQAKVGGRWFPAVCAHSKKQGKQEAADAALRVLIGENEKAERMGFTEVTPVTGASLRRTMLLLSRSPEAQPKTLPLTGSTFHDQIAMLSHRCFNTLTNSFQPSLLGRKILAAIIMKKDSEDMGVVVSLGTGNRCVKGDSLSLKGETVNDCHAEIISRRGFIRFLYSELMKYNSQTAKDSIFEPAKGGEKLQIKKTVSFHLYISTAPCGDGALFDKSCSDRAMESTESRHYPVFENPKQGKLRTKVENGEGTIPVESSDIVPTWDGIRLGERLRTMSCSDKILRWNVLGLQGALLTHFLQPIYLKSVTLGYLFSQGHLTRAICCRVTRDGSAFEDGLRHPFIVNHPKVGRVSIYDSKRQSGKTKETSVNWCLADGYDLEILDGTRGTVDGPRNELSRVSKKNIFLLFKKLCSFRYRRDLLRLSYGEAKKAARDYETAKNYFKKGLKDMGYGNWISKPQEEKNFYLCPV
Test: ADAR1 Inhibition Assay (IFN fold-induction, Quanti-Luc luminescence, p110 KO A549 dual cells)
Type: cell-based
Settings: IFN fold-induction vs DMSO, 24 and 48 h
In short: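 p110 KO A549 dual cells (20,000/well) in supplemented DMEM, treated next day with compound at 1% final DMSO for 24 and 48 h at 37 °C, 5% CO2. Supernatant luminescence read with Quanti-Luc; IFN fold-induction = sample RLU/mean DMSO RLU, used for EC50.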

Structure (SMILES)	EC50
CCOC(=O)c1cc(-c2ccccc2)sc1NC(=O)COC(=O)c1cccc(NS(=O)(=O)c2ccc(C)cc2)c1 [Compound 102]	> 100 µM
CCOC(=O)c1cc(-c2ccccc2)sc1NC(=O)COC(=O)c1cccc(NS(=O)(=O)N2CCCCC2)c1 [Compound 140]	> 100 µM
COC(=O)c1nc(NC(=O)COC(=O)c2cccc(S(N)(=O)=O)c2)sc1Br [Compound 9]	> 100 µM
CCOC(=O)c1cc(-c2ccccc2)sc1NC(=O)COC(=O)c1cc(S(N)(=O)=O)ccc1F [Compound 37]	> 100 µM
CCOC(=O)c1cc(-c2ccccc2)sc1NC(=O)COC(=O)c1cccc(NS(C)(=O)=O)n1 [Compound 183]	> 100 µM
CCOC(=O)c1cc(-c2ccccc2)sc1NC(=O)COC(=O)c1cccc(C(C)=O)c1 [Compound 64]	≤ 25 µM
CCOC(=O)c1cc(-c2ccccc2)sc1NC(=O)Nc1cccc(S(N)(=O)=O)c1 [Compound 21]	> 100 µM
CCOC(=O)c1cc(-c2ccccc2)sc1NC(=O)COC(=O)c1cccc(NS(=O)(=O)c2ccccc2)c1 [Compound 124]	> 100 µM
CCOC(=O)c1cc(-c2ccccc2)sc1NC(=O)N1CCN(C(=O)c2cccc(NS(C)(=O)=O)c2)CC1 [Compound 167]	> 100 µM
CCOC(=O)c1cc(-c2ccccc2)sc1NC(=O)CNC(=O)c1cccc(S(=O)(=O)N2CCCC2)c1 [Compound 29]	> 100 µM
CCOC(=O)c1cc(-c2ccccc2)sc1NC(=O)Cn1cnc2c(N)ncnc21 [Compound 176]	> 100 µM
CCOC(=O)c1cc(-c2ccccc2)sc1NC(=O)CCNc1cccc(NS(C)(=O)=O)c1 [Compound 169]	> 100 µM
CCOC(=O)c1cc(-c2ccccc2)sc1NC(=O)CNC(=O)c1ccc(Br)s1 [Compound 16]	> 100 µM
CCOC(=O)c1c(-c2ccccc2)csc1NC(=O)COC(=O)c1cccc(S(N)(=O)=O)c1 [Compound 3]	> 100 µM
NS(=O)(=O)c1cccc(NC(=O)CNC(=O)c2csc(-c3ccccc3)c2)c1 [Compound 30]	> 100 µM
CCOC(=O)c1cc(-c2cc(F)cc(F)c2)sc1NC(=O)COC(=O)c1cccc(S(N)(=O)=O)c1 [Compound 52]	> 100 µM
CCOC(=O)c1cc(-c2ccccc2)sc1NC(=O)COCc1cccc(N(S(C)(=O)=O)S(C)(=O)=O)c1 [Compound 179]	> 100 µM
CCOC(=O)c1cc(-c2ccccc2)sc1NC(=O)Cn1cc(-c2cccc(NS(C)(=O)=O)c2)nn1 [Compound 181]	> 100 µM
CCOC(=O)c1cc(-c2ccccc2F)sc1NC(=O)COC(=O)c1cccc(NS(C)(=O)=O)c1 [Compound 188]	> 100 µM
CCOC(=O)c1cc(-c2ccccc2)sc1NC(=O)[C@@H]1CCCN1C(=O)c1cccc(P(=O)(OCC)OCC)c1 [Compound 393]	> 100 µM
CCOC(=O)c1cc(-c2ccccc2)sc1NC(=O)C(C)OC(=O)c1cccc(NS(C)(=O)=O)c1 (stereo not drawn) [Compound 195]	> 100 µM
Cc1cc(C#N)c(NC(=O)COC(=O)c2cccc(S(N)(=O)=O)c2)s1 [Compound 83]	> 100 µM
CCOC(=O)c1nc(-c2ccccc2)oc1NC(=O)COC(=O)c1cccc(NS(C)(=O)=O)c1 [Compound 145]	> 100 µM
CCOC(=O)c1cc(-c2ccccc2)sc1NC(=O)COC(=O)c1cccc(S(C)(=N)=O)c1 (stereo not drawn) [Compound 174]	> 100 µM
CCOC(=O)c1cc(-c2ccccc2)sc1NC(=O)COC(=O)c1cc(NS(C)(=O)=O)ccc1F [Compound 129]	> 100 µM

Further lines, results first:

EC50	Structure (SMILES)
> 100 µM	CCOC(=O)c1cc(-c2ccccc2)sc1NC(=O)COC(=O)c1cccc(C(=O)NS(C)(=O)=O)c1 [Compound 256]
> 100 µM	CCOC(=O)c1cc(-c2ccccc2)sc1NC(=O)CO/N=C/c1cccc(NS(C)(=O)=O)c1 [Compound 283]
> 100 µM	CCOC(=O)c1sc(-c2ccccc2)cc1NC(=O)COC(=O)c1cccc(NS(C)(=O)=O)c1 [Compound 354]
> 100 µM	CCOC(=O)c1cc(-c2ccccc2)sc1NC(=O)c1cnc(-c2cccc(NS(C)(=O)=O)c2)o1 [Compound 248]
> 100 µM	CCOC(=O)c1cc(-c2ccccc2)sc1NC(=O)COC(=O)c1ccc2ccn(S(C)(=O)=O)c2c1 [Compound 340]
> 100 µM	CCOC(=O)c1cc(NC(=O)c2ccccc2)sc1NC(=O)COC(=O)c1cccc(NS(C)(=O)=O)c1 [Compound 263]
> 100 µM	CCOC(=O)c1cc(-c2ccccc2)cnc1NC(=O)COC(=O)c1cccc(NS(C)(=O)=O)c1 [Compound 260]
> 100 µM	CCOC(=O)c1nc(-c2ccccc2)ccc1NC(=O)COC(=O)c1cccc(NS(C)(=O)=O)c1 [Compound 245]
> 100 µM	CCOC(=O)c1cc(-c2ccccc2)sc1NC(=O)Cn1ncc2ccc(NS(C)(=O)=O)cc21 [Compound 242]
> 100 µM	CS(=O)(=O)Nc1cccc(C(=O)OCC(=O)N2CCN(c3ccccc3)C2=S)c1 [Compound 221]
> 100 µM	CCOC(=O)c1cc(-c2ccccc2)sc1NC(=O)C(C)NC(=O)Cc1cccc(NS(C)(=O)=O)c1 (stereo not drawn) [Compound 337]
> 100 µM	CCOC(=O)c1cc(C)sc1NC(=O)COC(=O)c1cccc(NS(C)(=O)=O)c1 [Compound 204]
> 100 µM	CCOC(=O)c1cc(-c2ccccc2)sc1NC(=O)c1nc(-c2cccc(NS(C)(=O)=O)c2)no1 [Compound 255]
> 100 µM	CCOC(=O)c1cnc(NC(=O)COC(=O)c2cccc(NS(C)(=O)=O)c2)c(-c2ccccc2)c1 [Compound 254]
> 100 µM	CCOC(=O)c1ccncc1NC(=O)COC(=O)c1cccc(NS(C)(=O)=O)c1 [Compound 277]
> 100 µM	CCOC(=O)c1c(NC(=O)COC(=O)c2cccc(NS(C)(=O)=O)c2)sc(N2CCOCC2)c1C [Compound 287]
> 100 µM	CCOC(=O)c1cc(C2=CCN(C)CC2)sc1NC(=O)COC(=O)c1cccc(NS(C)(=O)=O)c1 [Compound 278]
> 100 µM	CS(=O)(=O)Nc1cccc(-c2nc3sc(-c4ccccc4)cc3c(=O)[nH]2)c1 [Compound 286]
> 100 µM	CS(=O)(=O)Nc1cccc(C(=O)OCC(=O)Nc2sc(-c3ccccc3)cc2C(=O)OCCOCc2ccccc2)c1 [Compound 223]
> 100 µM	CS(=O)(=O)Nc1cccc(C(=O)OCC(=O)Nc2cc(-c3ccccc3)[nH]n2)c1 [Compound 265]
> 100 µM	CCOC(=O)c1cc(-c2ccccc2)sc1NC(=O)CNC(=O)/C=C/c1cccc(NS(C)(=O)=O)c1 [Compound 377]
> 100 µM	COC(=O)c1sccc1NC(=O)COC(=O)c1cccc(NS(C)(=O)=O)c1 [Compound 306]
> 100 µM	CCOC(=O)c1cc(-c2ccccc2)sc1NC(=O)c1cccc(-c2cccc(NS(C)(=O)=O)c2)c1 [Compound 252]
> 100 µM	CCOC(=O)c1cc(-c2ccccc2)sc1NC(=O)c1nn(-c2cccc(NS(C)(=O)=O)c2)c(=O)cc1C [Compound 273]
> 100 µM	CCOC(=O)c1cccc2nc(NC(=O)COC(=O)c3cccc(NS(C)(=O)=O)c3)sc12 [Compound 236]
> 100 µM	CCOC(=O)c1cc(-c2ccccc2)sc1NC(=O)CCOc1cccc(NS(C)(=O)=O)c1 [Compound 276]
> 100 µM	CCOC(=O)c1cc(-c2ccc(C(=O)O)cc2)sc1NC(=O)COC(=O)c1cccc(NS(C)(=O)=O)c1 [Compound 226]
> 100 µM	CCOC(=O)c1cc(-c2ccccc2)sc1NC(=O)c1nncn1-c1cccc(NS(C)(=O)=O)c1 [Compound 272]
> 100 µM	CCOC(=O)c1cc(-c2ccccc2)sc1NC(=O)Cn1ccc(=O)c(O)c1C [Compound 319]
